Assay results published in patent US20080261310A1, “IN VITRO ROOTING OF HOODIA PLANTS” (CONOPCO, INC., D/B/A/ UNILEVER, priority 2007, published 2008).

Tested on: Hoodia explants
Assay: In vitro rooting of Hoodia explants on rooting media (basal salts, phytohormones, charcoal)
Format: cell-based
Settings: experiment 11 medium with just IBA or just NAA alone
Protocol: The explants are placed onto rooting medium 1-2 cm deep in the medium in an erect position. The distance between the explants is the same as for the multiplication phase, although they may be placed closer (i.e. about 0.5-1 cm apart), as they are no longer producing new shoots. The rooted plans are kept in the rooting medium under conditions of darkness at temperature of 26±2° C., typically for about 2-3 weeks, and later are placed under light until roots develop before going into the greenhouse for hardening. In all the multiplication and later rooting trials, the experiments were carried out in a randomised factorial design with at least four replicates per treatment. The student's t-test was used to determine significant difference between the phytohormone treatments. P values ≦0.05 was considered significant. This example investigated various concentrations basal salt medium, vitamins (those in M&S medium, always included at full strength), and various phytohormones on rooting. Each experiment was replicated four times and statistical analysis has been carried out as described above.

O=C(O)CCCc1c[nH]c2ccccc12 [IBA, indole-3-butyric acid]
root formation when experiment 11 was repeated with a single auxin: no roots could be obtained

O=C(O)Cc1cccc2ccccc12 [NAA, α-naphthalene acetic acid]
root formation when experiment 11 was repeated with a single auxin: no roots could be obtained
